Results: patent publication US20240018135A1, “COMPOUND HAVING INHIBITORY ACTIVITY AGAINST O-GLUSACASE AND USE THEREOF” (MEDIFRON DBT INC., priority 2020, published 2024)

Experiments:
[1] = target: Human OGA (recombinant hOGA protein) (Homo sapiens (Human), UniProt O60502); assay: Human OGA enzyme activity assay (fluorescence, 4-Methylumbelliferyl N-acetyl-β-D-glucosaminide substrate); assay type: biochemical; conditions: for IC50: Table 1; for % of inhibition: Table 1, test concentration not given
Chain of Human OGA (recombinant hOGA protein) (O60502 whole entry): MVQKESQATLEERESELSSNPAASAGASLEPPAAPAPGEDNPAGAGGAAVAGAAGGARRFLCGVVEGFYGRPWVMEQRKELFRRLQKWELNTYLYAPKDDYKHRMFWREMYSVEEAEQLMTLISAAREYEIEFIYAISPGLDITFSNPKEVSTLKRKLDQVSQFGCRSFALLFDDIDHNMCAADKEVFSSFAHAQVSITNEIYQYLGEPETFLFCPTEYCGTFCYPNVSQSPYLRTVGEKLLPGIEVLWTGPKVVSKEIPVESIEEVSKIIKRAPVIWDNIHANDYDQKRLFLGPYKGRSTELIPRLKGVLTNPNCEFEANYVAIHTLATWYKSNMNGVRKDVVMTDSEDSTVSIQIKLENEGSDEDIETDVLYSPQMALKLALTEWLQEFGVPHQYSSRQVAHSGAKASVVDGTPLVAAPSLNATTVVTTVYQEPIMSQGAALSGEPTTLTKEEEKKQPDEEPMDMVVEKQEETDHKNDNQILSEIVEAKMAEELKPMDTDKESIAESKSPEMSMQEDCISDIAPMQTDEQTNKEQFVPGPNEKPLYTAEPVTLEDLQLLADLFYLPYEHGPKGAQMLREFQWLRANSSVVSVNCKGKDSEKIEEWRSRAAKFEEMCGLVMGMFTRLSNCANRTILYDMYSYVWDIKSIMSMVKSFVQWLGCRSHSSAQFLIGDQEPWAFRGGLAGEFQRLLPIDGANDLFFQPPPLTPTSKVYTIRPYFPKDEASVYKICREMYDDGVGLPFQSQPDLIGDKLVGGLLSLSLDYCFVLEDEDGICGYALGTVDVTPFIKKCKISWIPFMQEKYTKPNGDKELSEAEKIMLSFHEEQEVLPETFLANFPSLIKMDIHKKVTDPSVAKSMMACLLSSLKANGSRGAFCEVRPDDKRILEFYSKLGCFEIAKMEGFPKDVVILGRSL

Row | Compound | IC50 [1] | % of inhibition [1] | melting point
1 | 1-((2-acetamidothiazol-5-yl)methyl)-N-(4-fluorophenyl)piperidine-4-carboxamide [Compound B-14] | 300 nM | 89.0% | –
2 | 1-((2-acetamidothiazol-5-yl)methyl)-N-(p-tolyl)piperidine-4-carboxamide [Compound B-15] | 160 nM | 91.2% | –
3 | CC(=O)Nc1ncc(CN2CCN(CC(=O)Nc3ccccc3)CC2)s1 [Compound A-1, 2-(4-((2-acetamidothiazol-5-yl)methyl)piperazin-1-yl)-N-phenylacetamide] | 2600 nM | 78.3% | –
4 | CC(=O)Nc1ncc(CN2CCN(CC(=O)Oc3ccccc3)CC2)s1 [Compound A-2, phenyl 2-(4-((2-acetamidothiazol-5-yl)methyl)piperazin-1-yl)acetate] | – | 34.6% | 185 to 194 °C
5 | CC(=O)Nc1ncc(CN2CCN(CC(=O)Nc3ccc(C)cc3)CC2)s1 [Compound A-3, 2-(4-((2-acetamidothiazol-5-yl)methyl)piperazin-1-yl)-N-(p-tolyl)acetamide] | – | 70.7% | 213 to 217 °C
6 | CC(=O)Nc1ncc(CN2CCN(CC(=O)Nc3ccccc3C)CC2)s1 [Compound A-4, 2-(4-((2-acetamidothiazol-5-yl)methyl)piperazin-1-yl)-N-(o-tolyl)acetamide] | – | 47.6% | 194 to 196 °C
7 | CC(=O)Nc1ncc(CN2CCN(CC(=O)Nc3cccc(C)c3)CC2)s1 [Compound A-5, 2-(4-((2-acetamidothiazol-5-yl)methyl)piperazin-1-yl)-N-(m-tolyl)acetamide] | – | 62.4% | 202 to 204 °C
8 | CC(=O)Nc1ncc(CN2CCN(CC(=O)Nc3ccc(C(C)C)cc3)CC2)s1 [Compound A-6, 2-(4-((2-acetamidothiazol-5-yl)methyl)piperazin-1-yl)-N-(4-isopropylphenyl) acetamide] | – | 79.2% | 173 to 176 °C
9 | COc1ccc(NC(=O)CN2CCN(Cc3cnc(NC(C)=O)s3)CC2)cc1 [Compound A-7, 2-(4-((2-acetamidothiazol-5-yl)methyl)piperazin-1-yl)-N-(4-methoxyphenyl)acetamide] | 840 nM | 84.2% | 217 to 220 °C
10 | COc1ccc(CCNC(=O)CN2CCN(Cc3cnc(NC(C)=O)s3)CC2)cc1 [Compound A-8, 2-(4-((2-acetamidothiazol-5-yl)methyl)piperazin-1-yl)-N-(4-methoxyphenethyl) acetamide] | 630 nM | 85.4% | 177 to 179 °C
11 | COc1cccc(NC(=O)CN2CCN(Cc3cnc(NC(C)=O)s3)CC2)c1 [Compound A-9, 2-(4-((2-acetamidothiazol-5 yl)methyl)piperazin-1-yl)-N-(3-methoxyphenyl) acetamide.] | – | 59.9% | 210 to 212 °C
12 | COc1ccc(NC(=O)CN2CCN(Cc3cnc(NC(C)=O)s3)CC2)cc1OC [Compound A-10, 2-(4-((2-acetamidothiazol-5-yl)methyl)piperazin-1-yl)-N-(3,4-dimethoxyphenyl)acetamide] | – | 62.4% | 182 to 184 °C
13 | CC(=O)Nc1ncc(CN2CCN(CC(=O)Nc3ccc(F)cc3)CC2)s1 [Compound A-11, 2-(4-((2-acetamidothiazol-5-yl)methyl)piperazin-1-yl)-N-(4-fluorophenyl)acetamide] | 2610 nM | 85.7% | 212 to 215 °C
14 | CC(=O)Nc1ncc(CN2CCN(CC(=O)Nc3ccc(Cl)cc3)CC2)s1 [Compound A-12] | 1990 nM | 81.6% | 232 to 236 °C
15 | CC(=O)Nc1ncc(CN2CCN(CC(=O)Nc3ccc(Cl)cc3Br)CC2)s1 [Compound A-13, 2-(4-((2-acetamidothiazol-5-yl)methyl)piperazin-1-yl)-N-(2-bromo-4-chlorophenyl)acetamide] | 1700 nM | 85.2% | 212 to 213 °C
16 | CC(=O)Nc1ccc(NC(=O)CN2CCN(Cc3cnc(NC(C)=O)s3)CC2)cc1 [Compound A-14, N-(4-acetamidophenyl)-2-(4-((2-acetamidothiazol-5-yl)methyl)piperazin-1-yl)acetamide] | 1250 nM | 80.0% | 234 to 237 °C
17 | CC(=O)Nc1ncc(CN2CCN(CC(=O)Nc3ccccn3)CC2)s1 [Compound A-15, 2-(4-((2-acetamidothiazol-5-yl)methyl)piperazin-1-yl) N-(pyridin-2-yl)acetamide] | – | 90.9% | –
18 | CC(=O)Nc1ncc(CN2CCN(CC(=O)Nc3cccc(C)n3)CC2)s1 [Compound A-16] | – | 38.6% | 224 to 228 °C

Row | Compound | IC50 [1] | % of inhibition [1] | melting point
19 | CC(=O)Nc1ncc(CN2CCN(CC(=O)Nc3ccc(C)cn3)CC2)s1 [Compound A-17, 2-(4-((2-acetamidothiazol-5-yl)methyl)piperazin-1-yl)-N-(5-methylpyridin-2-yl) acetamide] | – | 64.3% | 224 to 230 °C
20 | CC(=O)Nc1ncc(CN2CCN(CC(=O)Nc3cc(C)ccn3)CC2)s1 [Compound A-18, 2-(4-((2-acetamidothiazol-5-yl)methyl)piperazin-1-yl)-N-(4-methylpyridin-2-yl) acetamide] | – | 48.8% | 210 to 211 °C
21 | CC(=O)Nc1ncc(CN2CCN(CC(=O)Nc3cnccn3)CC2)s1 [Compound A-19, 2-(4-((2-acetamidothiazol-5-yl)methyl)piperazin-1-yl)-N-(pyrazin-2-yl)acetamide] | – | 74.7% | 224 to 226 °C
22 | CC(=O)Nc1ncc(CN2CCN(CC(=O)NC3CCCCC3)CC2)s1 [Compound A-20, 2-(4-((2-acetamidothiazol-5-yl)methyl)piperazin-1-yl)-N-cyclohexylacetamide] | 1400 nM | 89.0% | 198 to 200 °C
23 | CC(=O)Nc1ncc(CN2CCN(CC(=O)Nc3nccs3)CC2)s1 [Compound A-21, 2-(4-((2-acetamidothiazol-5-yl)methyl)piperazin-1-yl)-N-(thiazol-2-yl)acetamide] | – | 59.1% | 237 to 240 °C
24 | CC(=O)Nc1ncc(CN2CCN(CC(=O)Nc3ccc4ncccc4c3)CC2)s1 [Compound A-22, 2-(4-((2-acetamidothiazol-5-yl)methyl)piperazin-1-yl)-N-(quinolin-6-yl)acetamide] | 900 nM | 97.5% | 248 to 250 °C
25 | CC(=O)Nc1ncc(CN2CCN(CC(=O)Nc3ccc4nccnc4c3)CC2)s1 [Compound A-23, 2-(4-((2-acetamidothiazol-5-yl)methyl)piperazin-1 yl)-N-(quinoxalin-6-yl)acetamide] | – | 70.1% | 234 to 235 °C
26 | CC(=O)Nc1ncc(CN2CCN(CC(=O)Nc3cccc4ccccc34)CC2)s1 [Compound A-24, 2-(4-((2-acetamidothiazol-5-yl)methyl)piperazin-1-yl)-N-(naphthalen-1-yl)acetamide] | – | 71.3% | 257 to 258 °C
27 | CC(=O)Nc1ncc(CN2CCN(CC(=O)Nc3ccc4[nH]ccc4c3)CC2)s1 [Compound A-25, 2-(4-((2-acetamidothiazol-5-yl)methyl)piperazin-1-yl)-N-(1H-indol-5-yl)acetamide] | – | 59.2% | 216 to 219 °C
28 | CC(=O)Nc1ncc(CN2CCN(CC(=O)Nc3nc4ccccc4[nH]3)CC2)s1 [Compound A-26, 2-(4-((2-acetamidothiazol-5-yl)methyl)piperazin-1-yl)-N-(1H-benzo[d]imidazol-2-yl)acetamide] | – | 62.6% | 233 to 236 °C
29 | CC(=O)Nc1ncc(CN2CCN(CC(=O)Nc3nc4ccccc4s3)CC2)s1 [Compound A-27, 2-(4-((2-acetamidothiazol-5-yl)methyl)piperazin-1 yl)-N-(benzo[d]thiazol-2-yl)acetamide] | – | 46.2% | 248 to 249 °C
30 | COc1ccc2nc(NC(=O)CN3CCN(Cc4cnc(NC(C)=O)s4)CC3)sc2c1 [Compound A-28, 2-(4-((2-acetamidothiazol-5-yl)methyl)piperazin-1-yl)-N-(6-methoxybenzo[d]thiazol-2-yl)acetamide] | – | 19.2% | –
31 | CCOc1ccc2nc(NC(=O)CN3CCN(Cc4cnc(NC(C)=O)s4)CC3)sc2c1 [Compound A-29, 2-(4-((2-acetamidothiazol-5 yl)methyl)piperazin-1 yl)-N-(6-ethoxybenzo[d]thiazol-2-yl)acetamide] | – | 44.6% | 244 to 246 °C
32 | CC(=O)Nc1ncc(CN2CCN(CC(=O)Nc3nc4c(Cl)cccc4s3)CC2)s1 [Compound A-30, 2-(4-((2-acetamidothiazol-5-yl)methyl)piperazin-1-yl)-N-(4-chlorobenzo[d]thiazol-2-yl)acetamide] | – | 42.6% | 255 to 257 °C
33 | CC(=O)Nc1ncc(CN2CCN(CC(=O)N(C)c3ccccc3)CC2)s1 [Compound A-31, 2-(4-((2-acetamidothiazol-5-yl)methyl)piperazin-1-yl)-N-methyl-N-phenylacetamide] | – | 50.4% | 208 to 210 °C
34 | CC(=O)Nc1ncc(CN2CCN(CC(=O)Nc3ccccc3)CC2C)s1 (stereo not shown) [Compound A-32, 2-(4-((2-acetamidothiazol-5 yl)methyl)-3-methylpiperazin-1-yl)-N-phenylacetamide] | 240 nM | 97.0% | 174 to 176 °C
35 | CC(=O)Nc1ncc(CN2CCC(C(=O)NC(C)c3ccc(C)cc3)CC2)s1 (stereo not shown) [Compound B-11, 1-((2-acetamidothiazol-5-yl)methyl)-N-(1-(p-tolyl)ethyl)piperidine-4-carboxamide] | 830 nM | 93.3% | –
36 | CC(=O)Nc1ncc(CN2CCC(C(=O)NC(C)c3ccc4ccccc4c3)CC2)s1 (stereo not shown) [Compound B-12, 1-((2-acetamidothiazol-5 yl)methyl)-N-(1-(naphthalen-2-yl)ethyl)piperidine-4-carboxamide] | 250 nM | 96.8% | –
